Legend:
purple nutsedge = test: Test B pre/postemergence purple nutsedge; assay type: in vivo, Cyperus rotundus; settings: for Nutsedge plant response rating: scale of 0 to 10 where 0 is no effect and 10 is complete control
Method in brief: (§1)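 Test chemicals in a non-phytotoxic solvent mixture with surfactant were sprayed preemergence onto planted seeds and postemergence onto plants 2 to 18 cm tall (1- to 4-leaf stage). After twelve to sixteen days in a greenhouse, injury was visually rated against untreated controls from 0 (no effect) to 10 (complete control).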

crabgrass = test: Test B pre/postemergence crabgrass; assay type: in vivo, Digitaria sanguinalis; settings: for Crabgrass plant response rating: scale of 0 to 10 where 0 is no effect and 10 is complete control
Method in brief: as §1

soybean = test: Test B pre/postemergence soybean; assay type: in vivo, Glycine max; settings: for Soybean plant response rating: scale of 0 to 10 where 0 is no effect and 10 is complete control
Method in brief: as §1

wheat = test: Test B pre/postemergence wheat; assay type: in vivo, Triticum aestivum; settings: for Wheat plant response rating: scale of 0 to 10 where 0 is no effect and 10 is complete control
Method in brief: as §1

smallflower flatsedge = test: Test B flood test smallflower flatsedge; assay type: in vivo, Cyperus difformis
Method in brief: (§2)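 Each value is a visual injury score relative to controls, with 10 meaning complete control and 0 no effect. Evaluation took place twelve to sixteen days after the 2-leaf-stage plants were treated and kept in the greenhouse.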

rape = test: Test B pre/postemergence rape; assay type: in vivo, Brassica napus; settings: for Rape plant response rating: scale of 0 to 10 where 0 is no effect and 10 is complete control
Method in brief: as §1

corn = test: Test B pre/postemergence corn; assay type: in vivo, Zea mays; settings: for Corn plant response rating: scale of 0 to 10 where 0 is no effect and 10 is complete control
Method in brief: as §1

wild oat = test: Test B pre/postemergence wild oat; assay type: in vivo, Avena fatua; settings: for Wild oats plant response rating: scale of 0 to 10 where 0 is no effect and 10 is complete control
Method in brief: as §1

pigweed = test: Test B pre/postemergence pigweed; assay type: in vivo, Amaranthus retroflexus; settings: for Redroot pigweed plant response rating: scale of 0 to 10 where 0 is no effect and 10 is complete control
Method in brief: as §1

velvetleaf = test: Test B pre/postemergence velvetleaf; assay type: in vivo, Abutilon theophrasti; settings: for Velvetleaf plant response rating: scale of 0 to 10 where 0 is no effect and 10 is complete control
Method in brief: as §1

rice = test: Test B flood test rice; assay type: in vivo, Oryza sativa
Method in brief: as §2

cocklebur = test: Test B pre/postemergence cocklebur; assay type: in vivo, Xanthium strumarium; settings: for Cocklebur plant response rating: scale of 0 to 10 where 0 is no effect and 10 is complete control
Method in brief: as §1

giant foxtail = test: Test B pre/postemergence giant foxtail; assay type: in vivo, Setaria faberii; settings: for Giant foxtail plant response rating: scale of 0 to 10 where 0 is no effect and 10 is complete control
Method in brief: as §1

morningglory = test: Test B pre/postemergence morningglory; assay type: in vivo, Ipomoea hederacea; settings: for Morningglory plant response rating: scale of 0 to 10 where 0 is no effect and 10 is complete control
Method in brief: as §1

duck salad = test: Test B flood test duck salad; assay type: in vivo, Heteranthera limosa
Method in brief: as §2

bedstraw = test: Test B pre/postemergence bedstraw; assay type: in vivo, Galium aparine; settings: Preemergence; for Bedstraw plant response rating: scale of 0 to 10 where 0 is no effect and 10 is complete control
Method in brief: as §1

[1] = Postemergence, Rate 125 g/ha, scale 0 to 10, 0 is no effect, 10 is complete control
[2] = Postemergence, Rate 250 g/ha, scale 0 to 10, 0 is no effect, 10 is complete control
[3] = Preemergence, Rate 62 g/ha, scale 0 to 10 (0 no effect, 10 complete control)
[4] = Rate 500 g/ha, Postemergence, scale 0 to 10, 0 no effect, 10 complete control
[5] = Rate 62 g/ha, flood test species, Pre-emergence, visual evaluation after twelve to sixteen days
[6] = Rate 125 g/ha, under heading Pre-emergence, flood test species, visual evaluation after twelve to sixteen days
[7] = Rate 250 g/ha, Pre-emergence, flood-test species, scale 0 to 10, 0 is no effect, 10 is complete control
[8] = Rate 500 g/ha, Pre-emergence, flood test species, scale 0 to 10 (0 no effect, 10 complete control)

With `CC(C)N(C(=O)n1oc(=O)n(CC2CCOC2)c1=O)c1ccc(F)cc1` (stereo not shown) [Compound 375] the “Plant response rating, Nutsedge” value (purple nutsedge; [1]) was 0, the “Plant response rating, Nutsedge” value (purple nutsedge; [2]) was 0 and the “Plant response rating, Nutsedge” value (purple nutsedge; [3]) was 0. For the same compound, the “Nutsedge plant response rating (0 to 10 scale)” value (purple nutsedge; Preemergence, Rate 125 g/ha) was 0, the “Nutsedge plant response rating” value (purple nutsedge; Preemergence, Rate 250 g/ha) was 0 and the “Nutsedge plant response rating” value (purple nutsedge; Preemergence, Rate 500 g/ha) was 0. The “Nutsedge plant response rating” value (purple nutsedge; Rate 62 g/ha, Postemergence) was 0, the “Plant response rating, Nutsedge” value (purple nutsedge; [4]) was 6 and the “Plant response rating, Crabgrass” value (crabgrass; [1]) was 4. For the same compound, the “Plant response rating, Crabgrass” value (crabgrass; [2]) was 7, the “Plant response rating, Crabgrass” value (crabgrass; [3]) was 7 and the “Crabgrass plant response rating (0 to 10 scale)” value (crabgrass; Preemergence, Rate 125 g/ha) was 8. For the same compound, the “Crabgrass plant response rating” value (crabgrass; Preemergence, Rate 250 g/ha) was 10, the “Crabgrass plant response rating” value (crabgrass; Preemergence, Rate 500 g/ha) was 10 and the “Crabgrass plant response rating” value (crabgrass; Rate 62 g/ha, Postemergence) was 0. For the same compound, the “Plant response rating, Crabgrass” value (crabgrass; [4]) was 9, the “Plant response rating, Soybean” value (soybean; [1]) was 1 and the “Plant response rating, Soybean” value (soybean; [2]) was 1. For the same compound, the “Plant response rating, Soybean” value (soybean; [3]) was 0, the “Soybean plant response rating (0 to 10 scale)” value (soybean; Preemergence, Rate 125 g/ha) was 0 and the “Soybean plant response rating” value (soybean; Preemergence, Rate 250 g/ha) was 0. For the same compound, the “Soybean plant response rating” value (soybean; Preemergence, Rate 500 g/ha) was 0, the “Soybean plant response rating” value (soybean; Rate 62 g/ha, Postemergence) was 1 and the “Plant response rating, Soybean” value (soybean; [4]) was 2. The “Plant response rating, Wheat” value (wheat; [1]) was 0, the “Plant response rating, Wheat” value (wheat; [2]) was 2 and the “Plant response rating, Wheat” value (wheat; [3]) was 0. The “Wheat plant response rating (0 to 10 scale)” value (wheat; Preemergence, Rate 125 g/ha) was 0, the “Wheat plant response rating” value (wheat; Preemergence, Rate 250 g/ha) was 2 and the “Wheat plant response rating” value (wheat; Preemergence, Rate 500 g/ha) was 3. The “Wheat plant response rating” value (wheat; Rate 62 g/ha, Postemergence) was 0, the “Plant response rating, Wheat” value (wheat; [4]) was 6 and the “Plant response rating, S. Flatsedge (0 to 10 scale, 0 is no effect, 10 is complete control)” value (smallflower flatsedge; [5]) was 0. The “S. Flatsedge plant response rating (0 to 10 scale, 0 is no effect, 10 is complete control)” value (smallflower flatsedge; [6]) was 0, the “S. Flatsedge plant response rating” value (smallflower flatsedge; [7]) was 0 and the “S. Flatsedge plant response rating” value (smallflower flatsedge; [8]) was 0. For the same compound, the “Plant response rating, Rape” value (rape; [1]) was 0, the “Plant response rating, Rape” value (rape; [2]) was 0 and the “Plant response rating, Rape” value (rape; [3]) was 0. For the same compound, the “Rape plant response rating (0 to 10 scale)” value (rape; Preemergence, Rate 125 g/ha) was 2, the “Rape plant response rating” value (rape; Preemergence, Rate 250 g/ha) was 6 and the “Rape plant response rating” value (rape; Preemergence, Rate 500 g/ha) was 8. The “Rape plant response rating” value (rape; Rate 62 g/ha, Postemergence) was 0, the “Plant response rating, Rape” value (rape; [4]) was 2 and the “Plant response rating, Corn” value (corn; [1]) was 0. For the same compound, the “Plant response rating, Corn” value (corn; [2]) was 0, the “Plant response rating, Corn” value (corn; [3]) was 0 and the “Corn plant response rating (0 to 10 scale)” value (corn; Preemergence, Rate 125 g/ha) was 2. The “Corn plant response rating” value (corn; Preemergence, Rate 250 g/ha) was 2, the “Corn plant response rating” value (corn; Preemergence, Rate 500 g/ha) was 7 and the “Corn plant response rating” value (corn; Rate 62 g/ha, Postemergence) was 0. For the same compound, the “Plant response rating, Corn” value (corn; [4]) was 2, the “Plant response rating, Wild oats” value (wild oat; [1]) was 0 and the “Plant response rating, Wild oats” value (wild oat; [2]) was 6. For the same compound, the “Plant response rating, Wild oats” value (wild oat; [3]) was 0, the “Wild oats plant response rating (0 to 10 scale)” value (wild oat; Preemergence, Rate 125 g/ha) was 4 and the “Wild oats plant response rating” value (wild oat; Preemergence, Rate 250 g/ha) was 9. For the same compound, the “Wild oats plant response rating” value (wild oat; Preemergence, Rate 500 g/ha) was 9, the “Wild oats plant response rating” value (wild oat; Rate 62 g/ha, Postemergence) was 0 and the “Plant response rating, Wild oats” value (wild oat; [4]) was 8. The “Plant response rating, Redroot pigweed” value (pigweed; [1]) was 0, the “Plant response rating, Redroot pigweed” value (pigweed; [2]) was 0 and the “Plant response rating, Redroot pigweed” value (pigweed; [3]) was 10. For the same compound, the “Redroot pigweed plant response rating (0 to 10 scale)” value (pigweed; Preemergence, Rate 125 g/ha) was 10, the “Redroot pigweed plant response rating” value (pigweed; Preemergence, Rate 250 g/ha) was 10 and the “Redroot pigweed plant response rating” value (pigweed; Preemergence, Rate 500 g/ha) was 10. For the same compound, the “Redroot pigweed plant response rating” value (pigweed; Rate 62 g/ha, Postemergence) was 0, the “Plant response rating, Redroot pigweed” value (pigweed; [4]) was 3 and the “Plant response rating, Velvetleaf” value (velvetleaf; [1]) was 0. For the same compound, the “Plant response rating, Velvetleaf” value (velvetleaf; [2]) was 2, the “Plant response rating, Velvetleaf” value (velvetleaf; [3]) was 0 and the “Velvetleaf plant response rating (0 to 10 scale)” value (velvetleaf; Preemergence, Rate 125 g/ha) was 3. The “Velvetleaf plant response rating” value (velvetleaf; Preemergence, Rate 250 g/ha) was 4, the “Velvetleaf plant response rating” value (velvetleaf; Preemergence, Rate 500 g/ha) was 7 and the “Velvetleaf plant response rating” value (velvetleaf; Rate 62 g/ha, Postemergence) was 0. For the same compound, the “Plant response rating, Velvetleaf” value (velvetleaf; [4]) was 4, the “Plant response rating, Rice (0 to 10 scale, 0 is no effect, 10 is complete control)” value (rice; [5]) was 0 and the “Rice plant response rating (0 to 10 scale, 0 is no effect, 10 is complete control)” value (rice; [6]) was 0. The “Rice plant response rating” value (rice; [7]) was 0, the “Rice plant response rating” value (rice; [8]) was 0 and the “Plant response rating, Cocklebur” value (cocklebur; [1]) was 0. The “Plant response rating, Cocklebur” value (cocklebur; [2]) was 0, the “Plant response rating, Cocklebur” value (cocklebur; [3]) was 0 and the “Cocklebur plant response rating (0 to 10 scale)” value (cocklebur; Preemergence, Rate 125 g/ha) was 0. The “Cocklebur plant response rating” value (cocklebur; Preemergence, Rate 250 g/ha) was 0, the “Cocklebur plant response rating” value (cocklebur; Preemergence, Rate 500 g/ha) was 0 and the “Cocklebur plant response rating” value (cocklebur; Rate 62 g/ha, Postemergence) was 0. For the same compound, the “Plant response rating, Cocklebur” value (cocklebur; [4]) was 0, the “Plant response rating, Giant foxtail” value (giant foxtail; [1]) was 6 and the “Plant response rating, Giant foxtail” value (giant foxtail; [2]) was 8. The “Plant response rating, Giant foxtail” value (giant foxtail; [3]) was 10, the “Giant foxtail plant response rating (0 to 10 scale)” value (giant foxtail; Preemergence, Rate 125 g/ha) was 10 and the “Giant foxtail plant response rating” value (giant foxtail; Preemergence, Rate 250 g/ha) was 10. For the same compound, the “Giant foxtail plant response rating” value (giant foxtail; Preemergence, Rate 500 g/ha) was 10, the “Giant foxtail plant response rating” value (giant foxtail; Rate 62 g/ha, Postemergence) was 0 and the “Plant response rating, Giant foxtail” value (giant foxtail; [4]) was 9. For the same compound, the “Plant response rating, Morningglory” value (morningglory; [1]) was 1, the “Plant response rating, Morningglory” value (morningglory; [2]) was 5 and the “Plant response rating, Morningglory” value (morningglory; [3]) was 0. For the same compound, the “Morningglory plant response rating (0 to 10 scale)” value (morningglory; Preemergence, Rate 125 g/ha) was 0, the “Morningglory plant response rating” value (morningglory; Preemergence, Rate 250 g/ha) was 0 and the “Morningglory plant response rating” value (morningglory; Preemergence, Rate 500 g/ha) was 0. The “Morningglory plant response rating” value (morningglory; Rate 62 g/ha, Postemergence) was 1, the “Plant response rating, Morningglory” value (morningglory; [4]) was 6 and the “Plant response rating, Ducksalad (0 to 10 scale, 0 is no effect, 10 is complete control)” value (duck salad; [5]) was 0. The “Ducksalad plant response rating (0 to 10 scale, 0 is no effect, 10 is complete control)” value (duck salad; [6]) was 0, the “Ducksalad plant response rating” value (duck salad; [7]) was 0 and the “Ducksalad plant response rating” value (duck salad; [8]) was 0. The “Plant response rating, Bedstraw” value (bedstraw; Rate 62 g/ha, scale 0 to 10 (0 no effect, 10 complete control)) was 6, the “Bedstraw plant response rating (0 to 10 scale)” value (bedstraw; Rate 125 g/ha) was 10 and the “Bedstraw plant response rating” value (bedstraw; Rate 250 g/ha) was 10. The “Bedstraw plant response rating” value (bedstraw; Rate 500 g/ha) was 10.
